# From patent US20040024293A1, “Methods and systems for analyzing complex biological systems” (priority 2001, published 2004)
# Legend:
# [1] = tested on: Saccharomyces cerevisiae wild type strain BY4743; experiment: Metabolite analysis (GC-MS, LC-MS) of yeast cells treated with antifungal drugs (AF1); assay type: cell-based; conditions: for Fold Change of NacetylDglucosamine: metabolite NacetylDglucosamine; for Fold Change of phosphoenolpyruvate: metabolite phosphoenolpyruvate; for Fold Change of thymine: metabolite thymine; for Fold Change of urocanic acid: metabolite urocanic acid; for Fold Change of zeatin: metabolite zeatin
# [2] = tested on: Saccharomyces cerevisiae wild type strain BY4743; experiment: Combined gene expression and metabolite data mapped to KEGG reactions and pathways (AF1); assay type: cell-based; conditions: yeast
# Excerpt: In AF1, two different technologies were utilized: gene expression analysis (for examination of mRNA expression) and metabolite analysis. […] As noted previously, existing metabolic databases may be helpful in practicing the methods and systems of the present invention, but many databases include limitations that make their use in data analysis and pathway mapping less than straightforward. […] This caveat to KEGG makes it difficult to pinpoint the correct pathway when attempting to link a gene to a specific pathway. […] The pathway score indicates how meaningful the mapping is, or how likely it is to be correctly indicative of the pathway involved in the perturbation under examination. The method provides a pathway score based on perturbation levels of genes. and/or compounds and the information content of each gene and/or compound in the pathway, i.e., a pathway score indicates the extent to which other pathways are mapped to a gene/compound. For example, imagine that two genes are perturbed in a particular experiment. One gene maps to only one pathway, giving a high degree of probability that the perturbed pathway is the one identified in the mapping. The second gene maps to three pathways. In the later example, there is only one-third the probability that the pathway identified in the mapping is the one perturbed. The present invention provides a method for calculating the pathway scores, so that more weight is given to a score of a gene or compound that maps to only one pathway than to a score of a gene or compound that maps to multiple pathways. […] Where n=the total number of genes in the pathway; ipath—count=the number of pathways containing a gene; and j=the number of genes in the pathway that are perturbed. Another factor to be considered when weighting a pathway score is the degree of perturbation. Degree of perturbation can be calculated, for example, based on a number of standard deviations from a norm, and included in an equation such as the one shown above, so that not only the number of pathways is taken into account, but also accounts for the amount of gene transcript or compound present as compared to a control. Compounds were also linked to pathways using the KEGG database. KEGG links 676 compounds measured in AF1 to a total of 92 pathways. Of the 676 compounds under consideration, 77 were detected in the AF1 samples. […] The multiple mapping feature of KEGG makes it difficult to pinpoint the correct pathway when trying to link a compound to a specific pathway. […] A pathway score calculation is applied to the compounds to account for both information content (number of pathways a compound maps to) and perturbation level. […]
# [3] = tested on: Saccharomyces cerevisiae wild type strain BY4743; experiment: Gene expression analysis of yeast cells treated with antifungal drugs (AF1); assay type: cell-based; conditions: p < 0.05; KEGG pathway mapping of gene expression data
# Experimental: Saccharomyces cerevisiae wild type strain BY4743 was purchased from American Type Culture Center (ATCC, Manassas, Va.). The yeast strain was grown in YPD or SD media. […] The cultures started from fresh single colonies were grown in 1.0 ml YPD overnight at 30° C. […] The OD600 was adjusted to 1.0 with YPD media, then 2.0 ml of each was inoculated into three 250 ml flasks, each containing 50 ml of SD media. […] The cells were kept growing for another two hours, then collected by centrifugation at 4000 rpm for 5 minutes at 4° C. Pellets were washed once with ice-cold water, then were lyophilized overnight at 4° C. […] RNA quality was determined using the Bioanalyzer 2100 and the RNA 6000 assay (Agilent Technologies, Palo Alto, Calif.) according to manufacturer's instructions. RNA concentrations were determined spectrophotometrically by measuring the absorption at 260 nm in an Ultrospec 2000 (Pharmacia Biotech, Piscataway, N.J.). […] Labeled cRNAs were evaluated using the RNA 6000 assay on the Agilent Bioanalyzer 2100. Labeled cRNA concentrations were determined spectrophotometrically by measuring the absorption at 260 nm in an Ultrospec 2000 (Pharmacia Biotech, Piscataway, N.J.). […] Each feature was determined from an array's associated pattern file and a detection algorithm. […] Data was evaluated after combining results from fluor reversal replicate hybridizations. […]
# Arabidopsis thaliana = experiment: Phenotypic profiling of Arabidopsis sprayed with unknown and commercial herbicides (MOA1); assay type: in vivo
structure (smiles),measurement,setting,value
CC[C@@H]([C@H](C)O)n1ncn(-c2ccc(N3CCN(c4ccc(OC[C@@H]5CO[C@@](Cn6cncn6)(c6ccc(F)cc6F)C5)cc4)CC3)cc2)c1=O [Posaconazole],Fold Change: aspartic acid,[1]; GC,−0.071
same,Fold Change: campesterol,[1]; GC,0
same,Fold Change: desmosterol,[1]; GC,0
same,Fold Change: iso citric acid,[1]; GC,0.4
same,Fold Change of NacetylDglucosamine,"[1]; platform nLC, p-Value 1",0
same,Fold Change of NacetylDglucosamine,"[1]; platform pLC, p-Value 1",0
same,Fold Change of NacetylLglutamate,"[1]; metabolite NacetylLglutamate, platform pLC, p-Value 1",0
same,Fold Change of NacetylLornithine,"[1]; metabolite NacetylLornithine, platform nLC, p-Value 1",0
same,Fold Change of niacinamide,"[1]; metabolite niacinamide, platform pLC, p-Value 1",0
same,Fold Change of nopaline,"[1]; metabolite nopaline, platform pLC, p-Value 1",0
same,Fold Change of ornithine3,"[1]; metabolite ornithine3, platform GC, p-Value 0.965157424",0.041
same,Fold Change of orotic acid,"[1]; metabolite orotic acid, platform nLC, p-Value 1",0
same,Fold Change of phenylpyruvic acid,"[1]; metabolite phenylpyruvic acid, platform nLC, p-Value 1",0
same,Fold Change of phosphoenolpyruvate,"[1]; platform nLC, p-Value 1",0
same,Fold Change of phosphoenolpyruvate,"[1]; platform pLC, p-Value 1",0
same,Fold Change of pinitol,"[1]; metabolite pinitol, platform nLC, p-Value 1",0
same,Fold Change of porphobilinogen,"[1]; metabolite porphobilinogen, platform nLC, p-Value 1",0
same,Fold Change of progesterone,"[1]; metabolite progesterone, platform pLC, p-Value 1",0
same,Fold Change of retinoic acid,"[1]; metabolite retinoic acid, platform nLC, p-Value 1",0
same,Fold Change of riboflavin,"[1]; metabolite riboflavin, platform pLC, p-Value 1",0
same,Fold Change of salicylic/HObenzoic,"[1]; metabolite salicylic/HObenzoic, platform nLC, p-Value 1",0
same,Fold Change of shikimic acid,"[1]; metabolite shikimic acid, platform nLC, p-Value 1",0
same,Fold Change of sinapinic acid,"[1]; metabolite sinapinic acid, platform nLC, p-Value 1",0
same,Fold Change of sugar-phosphate,"[1]; metabolite sugar-phosphate, platform pLC, p-Value 1",0
same,Fold Change of thiamine,"[1]; metabolite thiamine, platform pLC, p-Value 1",0
same,Fold Change of thymine,"[1]; platform nLC, p-Value 1",0
same,Fold Change of thymine,"[1]; platform pLC, p-Value 1",0
same,Fold Change of tryptophan,"[1]; metabolite tryptophan, platform pLC, p-Value 1",0
same,Fold Change of uric acid,"[1]; metabolite uric acid, platform pLC, p-Value 1",0
same,Fold Change of urocanic acid,"[1]; platform nLC, p-Value 1",0
same,Fold Change of urocanic acid,"[1]; platform pLC, p-Value 1",0
same,Fold Change of xanthosine(diH2O),"[1]; metabolite xanthosine(diH2O), platform pLC, p-Value 1",0
same,Fold Change of xanthosineDiH2O,"[1]; metabolite xanthosineDiH2O, platform nLC, p-Value 1",0
same,Fold Change of zeatin,"[1]; platform nLC, p-Value 1",0
same,Fold Change of zeatin,"[1]; platform pLC, p-Value 1",0
same,Fold Change: 4-methylcatechol,[1]; nLC,0
same,Fold Change: 5hydroxyLtryptophan,[1]; nLC,0
same,Fold Change: 6-benzylaminopurine,[1]; nLC,0
same,Fold Change: abscisic acid,[1]; nLC,0
same,Fold Change: adenine,[1]; nLC,0
same,Fold Change: anthranilic acid,[1]; nLC,0
same,Fold Change: benzoic acid,[1]; nLC,0
same,Fold Change: catechol,[1]; nLC,0
same,Fold Change: cinnamic acid,[1]; nLC,0
same,Fold Change: citricanoic/itaconi,[1]; nLC,0
same,Fold Change: coumaric acid,[1]; nLC,0
same,Fold Change: cytosine,[1]; nLC,0
same,Fold Change: diaminopimelic acid,[1]; nLC,0
same,Fold Change: dihydrofolic acid,[1]; nLC,0
same,Fold Change: estrone,[1]; nLC,0
same,Fold Change: farnesol,[1]; nLC,0
same,Fold Change: folic acid,[1]; nLC,0
same,Fold Change: gibberellic,[1]; nLC,0
same,Fold Change: guanine,[1]; nLC,0
same,Fold Change: histidine,[1]; nLC,0
same,Fold Change: homogentisic/uric,[1]; nLC,0
same,Fold Change: hydrocortisone,[1]; nLC,0
same,Fold Change: indole3pyruvic acid,[1]; nLC,0
same,Fold Change: jasmonic acid,[1]; nLC,0
same,Fold Change: kinetin,[1]; nLC,0
same,Fold Change: luteolin,[1]; nLC,0
same,Fold Change: malonic acid,[1]; nLC,0
same,Fold Change: methionine,[1]; nLC,0
same,Fold Change: 4-aminobenzoic acid,[1]; pLC,0
same,Fold Change: 4-methylcatechol,[1]; pLC,0
same,Fold Change: 5hydroxyLtryptophan,[1]; pLC,0
same,Fold Change: 6benzylaminopurine,[1]; pLC,0
same,Fold Change: abscisic acid,[1]; pLC,0
same,Fold Change: adenosine,[1]; pLC,0
same,Fold Change: allantoic acid,[1]; pLC,0
same,Fold Change: anthranilic acid,[1]; pLC,0
same,Fold Change: argininosuccinate,[1]; pLC,0
same,Fold Change: biotin,[1]; pLC,0
same,Fold Change: caffeine,[1]; pLC,0
same,Fold Change: citric acid TME,[1]; pLC,0
same,Fold Change: cytidine,[1]; pLC,0
same,Fold Change: diaminopimelic acid,[1]; pLC,0
same,Fold Change: dihydrofolic acid,[1]; pLC,0
same,Fold Change: dipicolinic acid,[1]; pLC,0
same,Fold Change: folic acid,[1]; pLC,0
same,Fold Change: glucosamine,[1]; pLC,0
same,Fold Change: glucosamine6PO4,[1]; pLC,0
same,Fold Change: histidine,[1]; pLC,0
same,Fold Change: hydrocortisone,[1]; pLC,0
same,Fold Change: itaconic acid dimes,[1]; pLC,0
same,Fold Change: kinetin,[1]; pLC,0
same,Fold Change: luteolin,[1]; pLC,0
same,# Reactions (Number Of Pathways Having at Least One Enzyme and One Compound Perturbed),[2],3
C[C@@H]1[C@H](O)[C@@H](C)/C=C/C=C/C=C/C=C/C=C/C=C/C=C/[C@H](O[C@@H]2O[C@H](C)[C@@H](O)[C@H](N)[C@@H]2O)C[C@@H]2O[C@](O)(C[C@@H](O)C[C@@H](O)[C@H](O)CC[C@@H](O)C[C@@H](O)CC(=O)O[C@H]1C)C[C@H](O)[C@H]2C(=O)O [Amphoteracin B],# Pathways affected by at least one gene,[3],97
same,# Reactions (Number Of Pathways Having at Least One Enzyme and One Compound Perturbed),[2],37
Nc1nc[nH]n1 [Amitrole],herbicidal phenotype in words,Arabidopsis thaliana,chlorosis and not true bleaching
CCSC(=O)N(CC(C)C)CC(C)C [Butylate],herbicidal phenotype in words,Arabidopsis thaliana,neither showed a strong herbicidal phenotype
CC(C)OC(=O)Nc1cccc(Cl)c1 [Chloropropham],herbicidal phenotype in words,Arabidopsis thaliana,neither showed a strong herbicidal phenotype
